Consider two compounds from article PMC2131757 (BMC Neuroscience, 2007).

What all share (format): cell-based, murine
The test system of test [1] is NB4 1A3 neuroblastoma cells.
Test [2] deals with cPLA2 in NB4 1A3 neuroblastoma cells.
The test system of test [3] is COX-1 in NB4 1A3 neuroblastoma cells.
The test system of test [4] is NB4 1A3 neuroblastoma cells. The following applies: n = 6.
The test system of test [5] is NB4 1A3 neuroblastoma cells. This is another data set of the same source.
In test [6] the test system is NB4 1A3 neuroblastoma cells. The source holds these as a separate data set.
In a further test the test system is NB4 neuroblastoma cells.

Regarding `C=C(CC[C@]12O[C@H](C(=O)O)[C@@](O)(C(=O)O)[C@](C(=O)O)(O1)[C@H](OC(=O)/C=C/[C@@H](C)C[C@@H](C)CC)[C@H]2O)[C@@H](OC(C)=O)[C@H](C)Cc1ccccc1` [Squalestatin, squalestatin], in test [1], the “% of MoPrP105-132 co-localised with CTxB in squalestatin-treated cells” value is 5% ± 1, the “% of MoPrP105-132 co-localised with GM130 (Golgi) in squalestatin-treated cells” value is 7% ± 2, the “% of MoPrP105-132 co-localised with Grp78 (ER) in squalestatin-treated cells” value is listed as 3% ± 2 and the “% of MoPrP105-132 co-localised with LAMP-1 (lysosomes) in squalestatin-treated cells” value is recorded as 40% ± 6. Further, in test [1], the “% of MoPrP105-132 co-localised with TfR (early endosomes) in squalestatin-treated cells” value is listed as 68% ± 8 and the “% of MoPrP105-132 co-localised with caveolin-1 in squalestatin-treated cells” value was 9% ± 3. Also, in test [2], the “% of MoPrP105-132 co-localised with cPLA2 in squalestatin-treated cells” value is listed as 13% ± 4. For the same compound, the “% of MoPrP105-132 co-localised with COX-1 in squalestatin-treated cells” value in test [3] is 5% ± 5. Also, the “cell associated fluorescence (mean fluorescence intensity) of ingested MoPrP105-132 in squalestatin treated cells” value in test [4] is on record as 25.3 ± 4 arbitrary units. In addition, the “membrane fraction in which MoPrP105-132 is found (raft / non-raft) in squalestatin-treated cells” value in test [5] is “most of the MoPrP105-132 was detected in the non-raft fraction”. For the same compound, the “endosomal fraction in which MoPrP105-132 is detected in squalestatin-treated cells” value in test [6] is reported as “detected in the LAMP-1 positive, TfR negative, lysosomal fraction”. For the same compound, the “effect of squalestatin treatment on MoPrP105-132 induced neurotoxicity” value in the test with NB4 neuroblastoma cells is given as “prevent peptide-induced neurotoxicity”.

In the case of “1-O-alkyl-2-acetyl-sn-glycerol-3-phospho-(N,N,N-trimethyl)-hexanolamine [Hexa-PAF]”, the “% of MoPrP105-132 co-localised with cPLA2 in Hexa-PAF-treated cells” value in test [2] is recorded as 22% ± 6. Further, in test [3], the “% of MoPrP105-132 co-localised with COX-1 in Hexa-PAF-treated cells” value is 13% ± 3.
